Results on 88 compounds are retold here after a melting point compilation (Tetko et al.; mined from patent text by program, amines drawn as free bases though some values may be those of a salt).

The melting point is the temperature of the solid-liquid transition.

For `C#CCCC(=O)Oc1cc(-n2c(OC)nc(C(F)(F)C(F)(F)F)c(F)c2=O)c(F)cc1Cl`, the melting point lay in the range of 107 to 109 °C.

`CC(=O)NCC1CN(c2ccc(N3CCN(C(=O)COC(=O)CN4CCN(C)CC4)CC3)c(F)c2)C(=O)O1` (stereo not drawn) gave a melting point of 128 to 129 °C.

For `CC1=NN(c2ccc(Cl)cc2)C(c2ccc(N)c(C)c2)C1` (stereo not drawn), the melting point lay within 180 to 184 °C.

For the compound `C=C(Oc1cc(-n2c(=O)cc(C(F)(F)F)n(N)c2=O)c(F)cc1Cl)C(=O)OC`, the melting point was found to be 66 °C.

For the compound `CC(=O)ON(CCOc1ccc2c(c1)CCN(CCCc1ccc(F)cc1)C2=O)C(N)=O`, the melting point is 113 to 114 °C.

With `O=C(c1cccs1)C(O)c1ccc(Cl)c(Cl)c1` (stereo not drawn), the melting point fell in the range of 108 to 109 °C.

`CS(=O)(=O)OCC1(c2ccccc2)CCCC1` came in with a melting point of 55 to 60 °C.

As to `Cc1ccc(-c2ccc3c(c2)C=C(C(=O)Nc2ccc(CNC(CO)CO)cc2)CC3)cc1`, the melting point lay within 189 to 193 °C.

`COc1ccc(CSc2nnc(-c3ccc4c(c3)CCO4)o2)cc1F` returned a melting point of 121 to 122 °C.

For `N#Cc1ccccc1Cn1ccc(OCc2ccc(F)cc2F)c(Br)c1=O`, the melting point was 194 to 197 °C.

The compound `CCc1nc(/C=C/c2cn(-c3ccccc3)nc2OCc2ccc(OCc3nc(-c4cccc(CC(=O)O)c4)oc3C)c(OC)c2)cs1` yielded a melting point of 154 to 155 °C.

Compound `CC(C)NC(=O)c1cccc(-c2ccnc3c(C(=O)c4cccs4)cnn23)c1` displayed a melting point of 218 to 220 °C.

`OCc1cccc2c1ccn2-c1ccnc(N[C@H]2CC[C@H](O)CC2)n1`: the melting point lay in the range of 212 to 213 °C.

In the case of `N#CCC1=C(n2nc(-c3c(-c4ccccc4)nn4ccccc34)ccc2=O)CCCC1`, the melting point lay in the range of 74 to 76 °C.

`COC(=O)N(CCCc1ccccc1)[C@H]1CC[C@H](c2ccc(O)cc2)CC1` showed a melting point of 128 to 133 °C.

In the case of `O=C1NCc2c(-c3ccccc3)cccc2N1C1CCCCC1`, the melting point is 229 to 231 °C.

In the case of `O=C1CC(Cl)C(=O)N1c1ccccc1` (stereo not drawn), the melting point fell in the range of 117 to 118 °C.

As to `CC(C)Oc1cc(O)c2c(=O)cc(Sc3ccc(O)cc3)oc2c1`, the melting point lay within 205 to 207 °C.

The compound `COc1cc(Cn2c(=S)sc3ccccc32)cc(OC)c1O` yielded a melting point of 141 to 142 °C.

In turn, `COc1ccc(C2=C(c3ccc(S(C)(=O)=O)cc3)CCC2)cc1F` returned a melting point of 128 to 129 °C.

As for `CSc1nc(Cl)cc2nncn12`, the melting point was 164 to 165 °C.

In turn, `CSC1C(=O)Nc2ccc(Oc3ccc(C(F)(F)F)c(Cl)c3)cc21` (stereo not drawn) displayed a melting point of 174 to 178 °C.

Compound `COCC1(C)Oc2ccc(C#N)cc2C(n2ccccc2=O)C1O` (stereo not drawn) had a melting point of 210 to 212 °C.

`Nc1ccccc1-c1nnc(-c2ccc(C(=O)O)cc2)o1` gave a melting point of over 300 °C.

Turning to `CC1(C2CCC3C4CCC5CC6OC6CC5(C)C4C(=O)CC32C)OCCO1` (stereo not drawn), the melting point was 159 to 160 °C.

In the case of `CC1=CC2C(=O)NC(=O)C2(Cc2ccccc2)C=C1` (stereo not drawn), the melting point was in the range of 128 to 130 °C.

Regarding `O=c1c2cccc3ncc(c(=O)n1CCCCNS(=O)(=O)C(F)(F)F)n32`, the melting point fell in the range of 206 to 207 °C.

Regarding `O=C=Nc1cc(OCC(F)(F)F)ccc1OCC(F)(F)F`, the melting point lay in the range of 50 to 52 °C.

In the case of `Cn1c2ccc(Br)cc2c2cc(Br)cc([N+](=O)[O-])c21`, the melting point turned out to be 221 °C.

As to `CC(=O)NC[C@H]1CN(c2ccc(N3CC(O[Si](C)(C)C(C)(C)C)C3)c(F)c2)C(=O)O1`, the melting point came to 184 °C.

`COC(=O)c1cc(I)cnc1Cl`: the melting point lay in the range of 49 to 50 °C.

As for `O=C(OCCN1CCCCCC1)c1ccccc1Nc1ccnc2cc(C(F)(F)F)ccc12`, the melting point is 72 to 75 °C.

Take `O=c1cc(-c2ccc(OCCCCl)cc2)cn[nH]1`: the melting point lay in the range of 197 to 199 °C.

In turn, `COc1ccc2cc(Oc3cnc(N)nc3N)c(C(C)C)cc2c1` showed a melting point of 170 to 172 °C.

Regarding `CC(=O)Nc1nc(CN2CCN(C(c3ccccc3)c3ccccc3)CC2)cs1`, the melting point was in the range of 178 to 179 °C.

In turn, `CC(C)(C)c1cc(C(=S)OCc2ccccc2)cc(C(C)(C)C)c1O` had a melting point of 115 to 119 °C.

`COc1cc2c(Nc3ccc(Sc4nccn4C)c(Cl)c3)c(C#N)cnc2cc1-c1csc(CN2CCOCC2)c1` displayed a melting point of 238 to 240 °C.

Compound `CCOCCCc1ccc(Oc2ccc3c(c2)C=C(C(=O)OC)CCS3(=O)=O)cc1` registered a melting point of 93 to 94 °C.

Take `CC(=O)c1cc(C)n(CCO)n1`: the melting point was 78 to 79 °C.

For the compound `C[C@@H]1N[C@@H](c2ccc(C#N)cc2)[C@H]2C(=O)N(Cc3ccccc3)C(=O)[C@H]21` (racemic), the melting point was 169 to 170 °C.

Consider `O=C1N(Cc2cc3cccc(F)c3o2)c2ccccc2C12COc1cc3c(cc12)CCO3` (stereo not drawn), for which the melting point is 192 to 193 °C.

`COc1ccc(C2=NN(c3ccc(C(=O)N4CCN(c5c(Cl)cncc5Cl)CC4)cc3)C(=O)[C@@H]3CC=CC[C@H]23)cc1OC` displayed a melting point of 137 to 139 °C.

The compound `CCN1C(=O)c2cnc(-c3ccccc3)nc2Nc2ccccc21` had a melting point of 198 to 199 °C.

Consider `CCCc1nnc(/C=C/c2nc(-c3ccccc3)oc2COc2ccc(OCc3nc(-c4ccccc4)oc3C)cc2)o1`, for which the melting point lay in the range of 119 to 120 °C.

`CN1C2CCC1CC(c1n[nH]c3ccccc13)C2` (stereo not drawn) displayed a melting point of 191 to 192 °C.

With `Cn1ncc(C#N)c1-c1ccc([N+](=O)[O-])o1`, the melting point fell in the range of 150 to 152 °C.

In the case of `CC(C)(C)[S@](=O)N1CCC[C@H]1c1cccs1`, the melting point lay within 125 to 130 °C.

With `COC(=O)c1nc(-c2ccc(Cl)cc2F)nc(N)c1Br`, the melting point was in the range of 186 to 188 °C.

Compound `CCCN(CCCCc1c[nH]c2ccc(F)cc12)C1COc2c(C(N)=O)ccc(F)c2C1` (stereo not drawn) came in with a melting point of 116 °C.

`NCCCNC(=O)Cn1ncc(-c2ccccc2)c1-c1ccccc1` returned a melting point of 119 to 120 °C.

Turning to `N#Cc1cc(F)c(N)cc1Oc1ccc2ccccc2c1`, the melting point came to 89 °C.

Compound `CC(=O)OCC(=O)Nc1cc(C#N)cc(NC(=O)COC(C)=O)c1Cl` showed a melting point of 193 to 195 °C.

`CC1=C(C(=O)O)N2C(=O)C(=NSc3ccc(C)cc3)C2SC1` (stereo not drawn) yielded a melting point of 186 to 187 °C.

The compound `CC(CCc1ccc(N(C)C)cc1)NCC(O)c1sccc1C(N)=O` (stereo not drawn) showed a melting point of 118 to 121 °C.

As to `CCN(CC)CCNc1ccc2c3c(nn2CCN(CC)CC)-c2c(O)ccc(O)c2C(=O)c13`, the melting point was 152 °C.

In the case of `N[C@H](Cc1cccc(OC(F)(F)C(F)F)c1)[C@@H](O)c1csc(-c2ccccc2)n1` (racemic), the melting point fell in the range of 128 to 130 °C.

As for `CC(C)(O)c1ccc(CNC(=O)c2cccnc2Oc2ccc3nonc3c2)cc1`, the melting point is 149 to 151 °C.

For the compound `COCC1CN(c2ccc(OCC3CCCC3=O)cc2)C(=O)O1` (stereo not drawn), the melting point was 70 °C.

Take `Cc1ccc2nc(-n3nc4c(c3O)-c3ccccc3CC4)sc2c1`: the melting point was in the range of 218 to 219 °C.

`COc1cc2c(Cl)c(C#N)cnc2c(OC)c1OC` had a melting point of 161 to 163 °C.

Regarding `NC(=O)c1sc2nc(N3CCC(NCC(O)c4ccc5ncccc5c4)CC3)cc(C(F)(F)F)c2c1N` (stereo not drawn), the melting point is 217 to 219 °C.

For `O=C(O)c1cn(-c2ccc(F)cc2)c2c(F)c(N3Cc4cccc(O)c4C3)c(F)cc2c1=O`, the melting point was over 300 °C.

In the case of `Cc1cc(C)c2nc(C3CC3)n(Cc3ncc(C4(C(=O)O)CC=CC4)cn3)c2n1`, the melting point fell in the range of 203 to 204 °C.

In the case of `O=C1NC(c2ccccc2)CN1S(=O)(=O)c1ccc2c(c1)CCN2C(=S)Nc1ccc(F)cc1` (stereo not drawn), the melting point was in the range of 190 to 192 °C.

`CCC(=CC(CNC(=O)c1ccc(N)nc1)=NO)C(C)[N+](=O)[O-]` (stereo not drawn) showed a melting point of 157 to 161 °C.

In turn, `COc1ccc(S(=O)(=O)n2ccc3ccnc(-c4ccc(Cl)cc4)c32)cc1` had a melting point of 126 to 128 °C.

`COc1cc2c(cc1Nc1ncc(Cl)c(NC3(C(=O)NCC#N)CC3)n1)CCN(CC(=O)N(C)C)CC2` gave a melting point of 120 to 128 °C.

Consider `Cc1c(CO)c2cnnc(NCc3ccccc3)c2n1Cc1ccccc1`, for which the melting point was in the range of 238 to 240 °C.

In turn, `Cc1nc(N2CCN(Cc3nccc4ccccc34)C2=O)sc1C(=O)NCc1cccnc1` returned a melting point of 151 to 153 °C.

Consider `Cc1ccc2nc(NC(=O)c3ccc(C(C)(C)C)cc3)cn2c1`, for which the melting point lay within 259 to 260 °C.

On to `COc1ccc(-c2cc(=O)n(Cc3ccc(OC)c(F)c3)nc2-c2ccc(OC)cc2)cc1`, for which the melting point is 166 to 168 °C.

On to `CCCCCCCCCCCCCCCC(=O)NCCCCCCCCCCCC(=O)O`, for which the melting point lay within 119 to 121 °C.

As for `Nc1cnn2c1NCC2`, the melting point was 177 to 179 °C.

The compound `CCCCc1nnc2n1-c1sc3c(c1C(c1ccccc1Cl)=NC2)CCNC3` returned a melting point of 224 °C.

Consider `CC(C)(C)OC(=O)N1CCN(c2ccc(-c3ccnc(Cl)n3)cn2)CC1`, for which the melting point lay within 182 to 183 °C.

Take `S=c1[nH]c(=S)c2ccccc2[nH]1`: the melting point fell in the range of 234 to 237 °C.

`O=C(CCN1CCN(c2cccc3[nH]ccc23)CC1)c1csc2ccccc12`: the melting point was in the range of 83 to 85 °C.

`CCOC(=O)c1c(N2CCN(C(=O)c3cccs3)CC2)c2sccc2n(Cc2cccc(F)c2)c1=O` yielded a melting point of 95 to 113 °C.

`Cn1c(=O)c(C#N)c(Cl)c2cc(F)ccc21` had a melting point of 258 °C.

In turn, `COc1cc(OCC(CO)CO)c(-c2cccs2)cc1C=CC(=O)c1ccc(C(=O)O)cc1` returned a melting point of 199 to 201 °C.

`COc1cccc(OC)c1CN1C(=O)C2CCCN2c2ccccc21` (stereo not drawn): the melting point is 128 to 130 °C.

`CS(=O)(=O)NC(=O)NCCCCC1CCSS1` (stereo not drawn) returned a melting point of 125 to 127 °C.

Turning to `COc1cc(I)cc(OC)c1SC`, the melting point fell in the range of 103 to 104 °C.

`CCn1cc(C(=O)O)c(=O)c2cc(F)c(N3CCC(CNC)C3)nc21` (stereo not drawn) returned a melting point of 251 to 253 °C.

In the case of `CCOC(=O)c1cnn2c1nc(NC(C)CC)c1cnc3c(cnn3CC)c12` (stereo not drawn), the melting point lay in the range of 94 to 97 °C.

In turn, `O=C(CBr)c1ccc(O)cc1` returned a melting point of 115 to 118 °C.

`CC(C(=O)NCc1cccs1)(c1ccccc1)c1ccccc1` gave a melting point of 90 to 91 °C.

Compound `Nc1nc2c(s1)CC(CCN1CC=C(c3ccccc3)CC1)CC2` (stereo not drawn) yielded a melting point of 177 to 182 °C.
